In PubChem BioAssay (NCI):
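GI50 = concentration required for 50% inhibition of growth. TGI marks complete inhibition of growth.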

Key:
Assay in all cases: DTP human tumour cell line panel, 384-well format
786-0 renal = test system: 786-0 renal
A498 renal = test system: A498 renal
A549 NSCLC = test system: A549 NSCLC
ACHN renal = test system: ACHN renal
BT-549 breast = test system: BT-549 breast
CAKI-1 renal = test system: CAKI-1 renal
CCRF-CEM leukemia = test system: CCRF-CEM leukemia
EKVX NSCLC = test system: EKVX NSCLC
HCC-2998 colon = test system: HCC-2998 colon
HCT-116 colon = test system: HCT-116 colon
HCT-15 colon = test system: HCT-15 colon
HL-60(TB) leukemia = test system: HL-60(TB) leukemia
HOP-62 NSCLC = test system: HOP-62 NSCLC
HOP-92 NSCLC = test system: HOP-92 NSCLC
HT29 colon = test system: HT29 colon
IGROV1 ovarian = test system: IGROV1 ovarian
K-562 leukemia = test system: K-562 leukemia
KM12 colon = test system: KM12 colon
M14 melanoma = test system: M14 melanoma
MCF7 breast = test system: MCF7 breast
MDA-MB-231 breast = test system: MDA-MB-231 breast
MDA-MB-435 melanoma = test system: MDA-MB-435 melanoma
MDA-MB-468 breast = test system: MDA-MB-468 breast
MOLT-4 leukemia = test system: MOLT-4 leukemia
NCI-H226 lung = test system: NCI-H226 lung
NCI-H23 lung = test system: NCI-H23 lung
NCI-H322M lung = test system: NCI-H322M lung
NCI-H460 NSCLC = test system: NCI-H460 NSCLC
NCI-H522 lung = test system: NCI-H522 lung
NCI/ADR-RES ovarian = test system: NCI/ADR-RES ovarian
OVCAR-5 ovarian = test system: OVCAR-5 ovarian
OVCAR-8 ovarian = test system: OVCAR-8 ovarian
PC-3 prostate = test system: PC-3 prostate
RPMI-8226 leukemia = test system: RPMI-8226 leukemia
RXF 393 renal = test system: RXF 393 renal
SF-268 CNS = test system: SF-268 CNS
SF-295 CNS = test system: SF-295 CNS
SF-539 CNS = test system: SF-539 CNS
SK-MEL-2 melanoma = test system: SK-MEL-2 melanoma
SK-MEL-28 melanoma = test system: SK-MEL-28 melanoma
SK-MEL-5 melanoma = test system: SK-MEL-5 melanoma
SN12C renal = test system: SN12C renal
SNB-19 CNS = test system: SNB-19 CNS
SR leukemia = test system: SR leukemia
T-47D breast = test system: T-47D breast
U251 glioblastoma = test system: U251 glioblastoma
UACC-257 melanoma = test system: UACC-257 melanoma

With COCCNc1cc(NC(=O)N2CCCc3cc(CN4CCN(C)CC4=O)c(C=O)nc32)ncc1C#N the GI50 ([…]-0 renal) was > 100 µM, the TGI (786-0 renal) was > 100 µM and the GI50 (A498 renal) was > 100 µM. The TGI (A498 renal) was > 100 µM, the GI50 (A549 NSCLC) was > 100 µM and the TGI (A549 NSCLC) was > 100 µM. The GI50 (ACHN renal) was > 100 µM, the TGI (ACHN renal) was > 100 µM and the GI50 (BT-549 breast) was > 100 µM. For the same molecule, the TGI (BT-549 breast) was > 100 µM, the GI50 (CAKI-1 renal) was > 100 µM and the TGI (CAKI-1 renal) was > 100 µM. The GI50 (CCRF-CEM leukemia) was 27 µM, the TGI (CCRF-CEM leukemia) was > 100 µM and the GI50 (EKVX NSCLC) was > 100 µM. For the same molecule, the TGI (EKVX NSCLC) was > 100 µM, the GI50 (HCC-2998 colon) was > 100 µM and the TGI (HCC-2998 colon) was > 100 µM. For the same molecule, the GI50 (HCT-116 colon) was > 100 µM, the TGI (HCT-116 colon) was > 100 µM and the GI50 (HCT-15 colon) was > 100 µM. For the same molecule, the TGI (HCT-15 colon) was > 100 µM, the GI50 (HL-60(TB) leukemia) was 99.6 µM and the TGI (HL-60(TB) leukemia) was > 100 µM. For the same molecule, the GI50 (HOP-62 NSCLC) was > 100 µM, the TGI (HOP-62 NSCLC) was > 100 µM and the TGI (HOP-92 NSCLC) was > 100 µM. For the same molecule, the GI50 (HT29 colon) was > 100 µM, the TGI (HT29 colon) was > 100 µM and the GI50 (IGROV1 ovarian) was > 100 µM. The TGI (IGROV1 ovarian) was > 100 µM, the GI50 (K-562 leukemia) was 22.2 µM and the TGI (K-562 leukemia) was > 100 µM. The GI50 (KM12 colon) was > 100 µM, the TGI (KM12 colon) was > 100 µM and the GI50 (M14 melanoma) was > 100 µM. For the same molecule, the TGI (M14 melanoma) was > 100 µM, the GI50 (MCF7 breast) was > 100 µM and the TGI (MCF7 breast) was > 100 µM. For the same molecule, the GI50 (MDA-MB-231 breast) was > 100 µM, the TGI (MDA-MB-231 breast) was > 100 µM and the GI50 (MDA-MB-435 melanoma) was > 100 µM. The TGI (MDA-MB-435 melanoma) was > 100 µM, the GI50 (MDA-MB-468 breast) was 4.83 µM and the TGI (MDA-MB-468 breast) was > 100 µM. For the same molecule, the GI50 (MOLT-4 leukemia) was 6.8 µM, the TGI (MOLT-4 leukemia) was > 100 µM and the GI50 (NCI-H226 lung) was > 100 µM. For the same molecule, the TGI (NCI-H226 lung) was > 100 µM, the GI50 (NCI-H23 lung) was > 100 µM and the TGI (NCI-H23 lung) was > 100 µM. For the same molecule, the GI50 (NCI-H322M lung) was > 100 µM, the TGI (NCI-H322M lung) was > 100 µM and the GI50 (NCI-H460 NSCLC) was > 100 µM. The TGI (NCI-H460 NSCLC) was > 100 µM, the GI50 (NCI-H522 lung) was > 42.2 µM and the TGI (NCI-H522 lung) was > 100 µM. The GI50 (NCI/ADR-RES ovarian) was > 100 µM, the TGI (NCI/ADR-RES ovarian) was > 100 µM and the GI50 (OVCAR-5 ovarian) was > 100 µM. The TGI (OVCAR-5 ovarian) was > 100 µM, the GI50 (OVCAR-8 ovarian) was > 100 µM and the TGI (OVCAR-8 ovarian) was > 100 µM. For the same molecule, the GI50 (PC-3 prostate) was > 100 µM, the TGI (PC-3 prostate) was > 100 µM and the GI50 (RPMI-8226 leukemia) was > 21.1 µM. The TGI (RPMI-8226 leukemia) was > 43.9 µM, the GI50 (RXF 393 renal) was > 100 µM and the TGI (RXF 393 renal) was > 100 µM. The GI50 (SF-268 CNS) was > 100 µM, the TGI (SF-268 CNS) was > 100 µM and the GI50 (SF-295 CNS) was > 100 µM. For the same molecule, the TGI (SF-295 CNS) was > 100 µM, the GI50 (SF-539 CNS) was > 100 µM and the TGI (SF-539 CNS) was > 100 µM. For the same molecule, the GI50 (SK-MEL-2 melanoma) was > 100 µM, the TGI (SK-MEL-2 melanoma) was > 100 µM and the GI50 (SK-MEL-28 melanoma) was > 100 µM. The TGI (SK-MEL-28 melanoma) was > 100 µM, the GI50 (SK-MEL-5 melanoma) was > 100 µM and the TGI (SK-MEL-5 melanoma) was > 100 µM. For the same molecule, the GI50 (SN12C renal) was > 100 µM, the TGI (SN12C renal) was > 100 µM and the GI50 (SNB-19 CNS) was > 100 µM. The TGI (SNB-19 CNS) was > 100 µM, the GI50 (SR leukemia) was 3.31 µM and the TGI (SR leukemia) was 10.8 µM. For the same molecule, the GI50 (T-47D breast) was > 77.7 µM, the TGI (T-47D breast) was > 100 µM and the GI50 (U251 glioblastoma) was > 100 µM. For the same molecule, the TGI (U251 glioblastoma) was > 100 µM, the GI50 (UACC-257 melanoma) was > 100 µM and the TGI (UACC-257 melanoma) was > 100 µM.
